Measurements published in patent publication US8415475B2, “Antibacterial quinoline derivatives” (Janssen Pharmaceutica N.V., priority 2006, dated 2013).
In brackets after ≈: the same amount, converted by molar mass.

Columns and labels:
[1] = system: Staphylococcus aureus (ATCC29213); experiment: In-vitro anti-bacterial microtitre plate assay, IC90, S. aureus; type: cell-based; details: 90% inhibitory concentration for bacterial growth, resazurin fluorescence; for IC90: Staphylococcus aureus, ATCC29213, 24 h, read-out: IC90 values STA 1 B29213; for IC90 values STA 1 B29213: 24 hours
Description: (§1) D.3. In-Vitro Method for Testing Compounds for Anti-Bacterial Activity Against Various Non-Mycobacterial Strains The bacteria used in this study were grown overnight in flasks containing 100 ml Mueller-Hinton Broth (Becton Dickinson-cat. no. 275730) in sterile de-ionized water, with shaking, at 37° C. Stocks (0.5 ml/tube) were stored at -70° C. until use. Bacteria titrations were performed in microtiter plates to detect the TCID50, in which the TCID50 represents the dilution that gives rise to bacterial growth in 50% of inoculated cultures. In general, an inoculum level of approximately 100 TCID50 was used for susceptibility testing. Flat-bottom, sterile 96-well plastic microtiter plates were filled with 180 μl of sterile deionized water, supplemented with 0.25% BSA. Subsequently, stock solutions (7.8× final test concentration) of compounds were added in 45 μl volumes in column 2. Serial five-fold dilutions (45 μl in 180 μl) were made directly in the microtiter plates from column 2 to reach column 11. Untreated control samples with (column 1) and without (column 12) inoculum were included in each microtiter plate. Depending on the bacteria type, approximately 10 to 60 CFU per well of bacteria inoculum (100 TCID50), in a volume of 100 μl in 2.8× Mueller-Hinton broth medium, was added to the rows […]. The same volume of broth medium without inoculum was added to column 12 in row A to H. The cultures were incubated at 37° C. for 24 hours under a normal atmosphere (incubator with open air valve and continuous ventilation). At the end of incubation, one day after inoculation, the bacterial growth was quantitated fluorometrically. Therefore resazurin (0.6 mg/ml) was added in a volume of 20 μl to all wells 3 hours after inoculation, and the plates were re-incubated overnight. A change in colour from blue to pink indicated the growth of bacteria. The fluorescence was read in a computer-controlled fluorometer (Cytofluor Biosearch) at an excitation wavelength of 530 nm and an emission wavelength of 590 nm. The % growth inhibition achieved by the compounds was calculated according to standard methods.

[2] = system: Streptococcus pneumoniae (ATCC6305); experiment: In-vitro anti-bacterial microtitre plate assay, IC90, S. pneumoniae; type: cell-based; details: 90% inhibitory concentration for bacterial growth, resazurin fluorescence; for IC90: Streptococcus pneumoniae, ATCC6305, 24 h, read-out: IC90 values SPN 1 6305; for IC90 values SPN 1 6305: 24 hours
Description: as §1

[3] = system: Streptococcus pyogens (ATCC8668); experiment: In-vitro anti-bacterial microtitre plate assay, IC90, S. pyogens; type: cell-based; details: 90% inhibitory concentration for bacterial growth, resazurin fluorescence; for IC90: Streptococcus, ATCC8668, 24 h, read-out: IC90 values SPY 8668
Description: as §1

M. Smegmatis (ATCC607) = experiment: In-vitro anti-bacterial activity against strain M. smegmatis ATCC607; type: cell-based; details: 90% inhibitory concentration for bacterial growth, Alamar Blue fluorescence; for IC90: Mycolicibacterium smegmatis, ATCC607, 48 h, read-out: IC90 values MSM 1 ATCC607; for IC90 values MSM 1 ATCC607: 48 hours
Description: D.2. In-Vitro Method for Testing Compounds for Anti-Bacterial Activity Against Strain M. smegmatis ATCC607. Flat-bottom, sterile 96-well plastic microtiter plates were filled with 180 μl of sterile deionized water, supplemented with 0.25% BSA. Subsequently, stock solutions (7.8× final test concentration) of compounds were added in 45 μl volumes to a series of duplicate wells in column 2 so as to allow evaluation of their effects on bacterial growth. Serial five-fold dilutions (45 μl in 180 μl) were made directly in the microtiter plates from column 2 to 11 using a customised robot system (Zymark Corp., Hopkinton, Mass.). Pipette tips were changed after every 3 dilutions to minimize pipetting errors with high hydrophobic compounds. Untreated control samples with (column 1) and without (column 12) inoculum were included in each microtiter plate. Approximately 250 CFU per well of bacteria inoculum, in a volume of 100 μl in 2.8× Mueller-Hinton broth medium, was added to the rows […]. The same volume of broth medium without inoculum was added to column 12 in row A to H. The cultures were incubated at 37° C. for 48 hours in a humidified 5% CO2 atmosphere (incubator with open air valve and continuous ventilation). At the end of incubation, two days after inoculation, the bacterial growth was quantitated fluorometrically. Therefore Alamar Blue (10×) was added to all wells in a volume of 20 μl and plates were incubated for another 2 hours at […] The fluorescence was read in a computer-controlled fluorometer (Cytofluor, Biosearch) at an excitation wavelength of 530 nm and an emission wavelength of 590 nm (gain 30).

[4] = system: Enterococcus faecalis (ATCC29212); experiment: In-vitro anti-bacterial microtitre plate assay, IC90, E. faecalis; type: cell-based; details: 90% inhibitory concentration for bacterial growth, resazurin fluorescence; for IC90: Enterococcus faecalis, ATCC29212, 24 h, read-out: IC90 values EFA 29212
Description: as §1

SMILES: C=Cc1ccc2nc(OC)c(C(c3ccc(Cl)cc3)C(O)(CCN(C)C)c3ccccc3)cc2c1 (single isomer, unassigned) [Compound 1]
- IC90 [1]: 48.7 µg/mL (≈ 100 µM)
- IC90 [2]: 1.7 µg/mL (≈ 3.49 µM)
- melting point: 184 °C

SMILES: C=Cc1ccc2nc(OC)c(C(c3ccc(Cl)cc3)C(O)(CCN(C)C)c3ccccc3)cc2c1 (single isomer, unassigned) [Compound 2]
- IC90 [3]: 1.22 µg/mL (≈ 2.5 µM)
- IC90 values STA 1 B29213 [1]: 48.7 µg/mL (≈ 100 µM)
- IC90 (M. Smegmatis (ATCC607)): 1.4 µg/mL (≈ 2.87 µM)
- IC90 [4]: 38.7 µg/mL (≈ 79.4 µM)
- IC90 values SPN 1 6305 [2]: 1.7 µg/mL (≈ 3.49 µM)
- melting point: 187 °C

SMILES: COc1nc2ccc(/C=N/O)cc2cc1C(c1ccccc1)C(O)(CCCCN(C)C)c1ccccc1 (single isomer, unassigned) [Compound 3]
- IC90 [1]: 7.9 µg/mL (≈ 15.9 µM)
- IC90 (M. Smegmatis (ATCC607)): 7.9 µg/mL (≈ 15.9 µM)
- IC90 [2]: 49.8 µg/mL (≈ 100 µM)

SMILES: CO/N=C/c1ccc2nc(OC)c(C(c3ccccc3)C(O)(CCCCN(C)C)c3ccccc3)cc2c1 (single isomer, unassigned) [Compound 4]
- IC90 [1]: 8.1 µg/mL (≈ 15.8 µM)
- IC90 (M. Smegmatis (ATCC607)): 1.6 µg/mL (≈ 3.13 µM)
- IC90 [2]: 10.2 µg/mL (≈ 19.9 µM)

SMILES: C=Cc1ccc2nc(OC)c(C(c3ccccc3)C(O)(CCc3ccc(F)cc3)CCN(C)C)cc2c1 (single isomer, unassigned) [Compound 6]
- IC90 [1]: 1.6 µg/mL (≈ 3.21 µM)
- IC90 values MSM 1 ATCC607 (M. Smegmatis (ATCC607)): 0.1 µg/mL (≈ 0.201 µM)
- IC90 [2]: 1.3 µg/mL (≈ 2.61 µM)
- melting point: 135 °C

SMILES: C=Cc1ccc2nc(OC)c(C(c3ccccc3)C(O)(CCc3ccc(F)cc3)CCN(C)C)cc2c1 (single isomer, unassigned) [Compound 7]
- IC90 values STA 1 B29213 [1]: 1.6 µg/mL (≈ 3.21 µM)
- IC90 values MSM 1 ATCC607 (M. Smegmatis (ATCC607)): 1.3 µg/mL (≈ 2.61 µM)
- IC90 values SPN 1 6305 [2]: 1.3 µg/mL (≈ 2.61 µM)
- melting point: 156 °C

SMILES: C=Cc1ccc2nc(OC)c(C(c3ccccc3)C(O)(CCN(C)C)c3cccc4ccccc34)cc2c1 (single isomer, unassigned) [Compound 10]
- IC90 [1]: 50.3 µg/mL (≈ 100 µM)
- IC90 (M. Smegmatis (ATCC607)): 8 µg/mL (≈ 15.9 µM)
- IC90 values SPN 1 6305 [2]: 20.0 µg/mL (≈ 39.8 µM)

SMILES: C/C=C/c1ccc2nc(OC)c(C(c3ccccc3)C(O)(CCN(C)C)c3cccc4ccccc34)cc2c1 (single isomer, unassigned) [Compound 12]
- IC90 [3]: 51.7 µg/mL (≈ 100 µM)
- IC90 [1]: 51.7 µg/mL (≈ 100 µM)
- IC90 values MSM 1 ATCC607 (M. Smegmatis (ATCC607)): 0.3 µg/mL (≈ 0.581 µM)
- IC90 [4]: 51.7 µg/mL (≈ 100 µM)
- IC90 values SPN 1 6305 [2]: 0.7 µg/mL (≈ 1.35 µM)
- melting point: 189 °C

SMILES: CC#Cc1ccc2nc(OC)c(C(c3ccccc3)C(O)(CCN(C)C)c3cccc4ccccc34)cc2c1 (single isomer, unassigned) [Compound 13]
- IC90 [3]: 51.5 µg/mL (≈ 100 µM)
- IC90 [1]: 51.5 µg/mL (≈ 100 µM)
- IC90 values MSM 1 ATCC607 (M. Smegmatis (ATCC607)): 0.003 µg/mL (≈ 0.00583 µM)
- IC90 [4]: 51.5 µg/mL (≈ 100 µM)
- IC90 values SPN 1 6305 [2]: 0.3 µg/mL (≈ 0.583 µM)
- melting point: 100 °C

SMILES: CC#Cc1ccc2nc(OC)c(C(c3ccccc3)C(O)(CCN(C)C)c3cccc4ccccc34)cc2c1 (single isomer, unassigned) [Compound 14]
- IC90 values SPY 8668 ([3]; 24 hours): 40.88 µg/mL (≈ 79.4 µM)
- IC90 values STA 1 B29213 [1]: 45.9 µg/mL (≈ 89.2 µM)
- IC90 values MSM 1 ATCC607 (M. Smegmatis (ATCC607)): 0.3 µg/mL (≈ 0.583 µM)
- IC90 values EFA 29212 ([4]; 24 hours): 51.47 µg/mL (≈ 100 µM)
- IC90 values SPN 1 6305 [2]: 1.5 µg/mL (≈ 2.91 µM)
- melting point: 202 °C

SMILES: COc1nc2ccc(CN)cc2cc1C(c1ccccc1)C(O)(CCN(C)C)c1cccc2ccccc12 (single isomer, unassigned) [Compound 20]
- IC90 values STA 1 B29213 [1]: 35.8 µg/mL (≈ 70.8 µM)
- IC90 values MSM 1 ATCC607 (M. Smegmatis (ATCC607)): 40.2 µg/mL (≈ 79.5 µM)
- IC90 [2]: 8 µg/mL (≈ 15.8 µM)

SMILES: COc1nc2ccc(CN(C)C)cc2cc1C(c1ccccc1)C(O)(CCN(C)C)c1cccc2ccccc12 (single isomer, unassigned) [Compound 21]
- IC90 [1]: 10.7 µg/mL (≈ 20 µM)
- IC90 values MSM 1 ATCC607 (M. Smegmatis (ATCC607)): 0.7 µg/mL (≈ 1.31 µM)
- IC90 [2]: 13.4 µg/mL (≈ 25.1 µM)

SMILES: COc1nc2ccc(CN(C)C)cc2cc1C(c1ccccc1)C(O)(CCN(C)C)c1cccc2ccccc12 (single isomer, unassigned) [Compound 22]
- IC90 values STA 1 B29213 [1]: 9.5 µg/mL (≈ 17.8 µM)
- IC90 values MSM 1 ATCC607 (M. Smegmatis (ATCC607)): 18.9 µg/mL (≈ 35.4 µM)
- IC90 values SPN 1 6305 [2]: 21.3 µg/mL (≈ 39.9 µM)

SMILES: COc1nc2ccc(/C=N/O)cc2cc1C(c1ccccc1)C(O)(CCN(C)C)c1cccc2ccccc12 (single isomer, unassigned) [Compound 24]
- IC90 [1]: 8.2 µg/mL (≈ 15.8 µM)
- IC90 values MSM 1 ATCC607 (M. Smegmatis (ATCC607)): 2.3 µg/mL (≈ 4.43 µM)
- IC90 values SPN 1 6305 [2]: 1.6 µg/mL (≈ 3.08 µM)
- melting point: 167 °C

SMILES: COc1nc2ccc(CN3CCN(C)CC3)cc2cc1C(c1ccccc1)C(O)(CCN(C)C)c1cccc2ccccc12 (single isomer, unassigned) [Compound 29]
- IC90 [1]: 9.3 µg/mL (≈ 15.8 µM)
- IC90 (M. Smegmatis (ATCC607)): 2.6 µg/mL (≈ 4.42 µM)
- IC90 [2]: 10.5 µg/mL (≈ 17.8 µM)

SMILES: COc1nc2ccc(/C=N/O)cc2cc1C(c1ccccc1)C(O)(CCCCN(C)C)c1ccc2ccccc2c1 (single isomer, unassigned) [Compound 32]
- IC90 [1]: 1.7 µg/mL (≈ 3.1 µM)
- IC90 values MSM 1 ATCC607 (M. Smegmatis (ATCC607)): 7.7 µg/mL (≈ 14.1 µM)
- IC90 values SPN 1 6305 [2]: 10.9 µg/mL (≈ 19.9 µM)

SMILES: COc1nc2ccc(/C=N/O)cc2cc1C(c1ccccc1)C(O)(CCCCN(C)C)c1ccc2ccccc2c1 (single isomer, unassigned) [Compound 33]
- IC90 values STA 1 B29213 [1]: 1.7 µg/mL (≈ 3.1 µM)
- IC90 values MSM 1 ATCC607 (M. Smegmatis (ATCC607)): 1.7 µg/mL (≈ 3.1 µM)
- IC90 values SPN 1 6305 [2]: 1.9 µg/mL (≈ 3.47 µM)
- melting point: 180 °C

SMILES: C=Cc1ccc2nc(OC)c(C(c3ccccc3)C(O)(CCCCN3CCCCC3)c3ccccc3)cc2c1 (single isomer, unassigned) [Compound 34]
- IC90 [1]: 1.7 µg/mL (≈ 3.26 µM)
- IC90 (M. Smegmatis (ATCC607)): 1.7 µg/mL (≈ 3.26 µM)
- IC90 values SPN 1 6305 [2]: 2.1 µg/mL (≈ 4.03 µM)

SMILES: C=Cc1ccc2nc(OC)c(C(c3ccccc3)C(O)(CCCCN3CCCCC3)c3ccccc3)cc2c1 (single isomer, unassigned) [Compound 35]
- IC90 values STA 1 B29213 [1]: 1.7 µg/mL (≈ 3.26 µM)
- IC90 values MSM 1 ATCC607 (M. Smegmatis (ATCC607)): 1.7 µg/mL (≈ 3.26 µM)
- IC90 values SPN 1 6305 [2]: 10.4 µg/mL (≈ 20 µM)

SMILES: COc1nc2ccc(C(=O)c3cccc(Br)c3)cc2cc1C(c1ccc(Cl)cc1)C(O)(CCN(C)C)c1ccccc1 (single isomer, unassigned) [Compound 40]
- melting point: 185 °C

SMILES: COc1nc2ccc(C(=O)c3cccc(Br)c3)cc2cc1C(c1ccccc1)C(O)(CCN(C)C)c1cccc2ccccc12 (stereo not drawn) [Compound 38]
- melting point: 118 °C
